Source: US8207227B2, “Disodium salts, monohydrates, and ethanol solvates for delivering active agents” (Emisphere Technologies, Inc., priority 1999, dated 2012)

What was measured:
[1] = Oral delivery of sCT/sodium salt of 5-CNAC in rats; serum sCT by EIA kit, modified protocol; assay type: in vivo, Sprague-Dawley rats; details: subcutaneous, sCT 5 mg/kg (so in the source), no delivery agent
Procedure: The rats were administered one of the following: • (4a) orally, one capsule of 13 mg lyophilized powder as prepared as in Example 19 with 0.5 ml of water to flush the capsule down; • (4b) orally, 1.0 ml/kg of a reconstituted aqueous solution of the lyophilized powder prepared in Example 19; • (4c) orally, 1.0 ml/kg of “fresh”, unlyophilized aqueous solution of 5-CNAC sodium salt as prepared in Example 20 with sCT; or • (4d) subcutaneously, 5 mg/kg of sCT.
Doses (4a), (4b) and (4c) contained 50 mg/kg of the sodium salt of 5-CNAC and […] of sCT. Doses for (4a) are approximate because the animals were given one capsule filled with the stated amount of powder based on an average animal weight of 250 g, whereas actual animal weight varied. This is also the case in all later examples where a capsule is dosed.
The reconstituted solution for (4b) was prepared by mixing 150 mg of the lyophilized powder prepared as in Example 19 in 3 ml of water. The reconstituted solution was dosed at […].
The subcutaneous doses were prepared by dissolving 2 mg of sCT in 1 ml water. […]. This solution was dosed at 0.5 ml/kg.
Blood samples were collected serially from the tail artery. […]

[2] = Oral delivery of heparin with SNAC salts; plasma heparin by anti-Factor Xa assay; assay type: in vivo, Sprague-Dawley rats; details: rats, oral gavage, 3 ml/kg, compound 300 mg/kg, heparin 100 mg/kg
Procedure: The typical dosing and sampling protocols were as follows. […] The syringe was filled with dosing solution by drawing the solution through the catheter, which was then wiped dry. The catheter was placed down the esophagus leaving 1 cm of tubing past the incisors. Solution was administered by pressing the syringe plunger.

[3] = system: clotting time (APTT); experiment: Oral delivery of heparin with SNAC salts; clotting time by activated partial thromboplastin time (APTT); assay type: in vivo, Sprague-Dawley rats; details: rats, oral gavage, 3 ml/kg, compound 300 mg/kg, heparin 100 mg/kg; baseline about 20 seconds
Procedure: Oral gavage (PO) dosing solutions containing heparin sodium USP and either the mono-sodium or di-sodium salt form of the delivery agent compound SNAC were prepared in water. The delivery agent compound and heparin (166.9 IU/mg) were mixed by vortex as dry powders. This dry mixture was dissolved in water, vortexed and sonicated at about 37° C. to produce a clear solution. The pH was not adjusted. The final volume was adjusted to about 10.0 ml. The final delivery agent compound dose, heparin dose and dose volume amounts are listed below in Table 2 below.
The typical dosing and sampling protocols were as follows. […]
Citrated blood samples were collected by cardiac puncture 0.25, 0.5, 1.0 and 1.5 hours after administration. Heparin absorption was verified by an increase in clotting time as measured by the activated partial thromboplastin time (APTT) according to the method of Henry, J. B., Clinical Diagnosis and Management by Laboratory Methods, Philadelphia, Pa., W.B. Saunders (1979). […] Heparin absorption was also verified by an increase in plasma heparin measured by the anti-Factor Xa assay CHROMOSTRATE® Heparin anti-Xa assay, available from Organon Teknika Corporation of Durham, N.C. […]

[4] = Oral delivery of low molecular weight heparin (LMWH) with SNAD salts; plasma heparin by anti-Factor Xa assay; assay type: in vivo, Sprague-Dawley rats; details: rats, 3 ml/kg, compound 300 mg/kg, LMWH dose 3000 (mg/kg)
Procedure: The typical dosing and sampling protocols were as follows. Male Sprague-Dawley rats weighing between 275-350 g were fasted for 24 hours and were anesthetized with ketamine hydrochloride (about 88 mg/kg) intramuscularly immediately prior to dosing and again as needed to maintain anesthesia. A dosing group of ten rats was administered one of the dosing solutions. An 11 cm Rusch 8 French catheter was adapted to a 1 ml syringe with a pipette tip. The syringe was filled with dosing solution by drawing the solution through the catheter, which was then wiped dry. The catheter was placed down the esophagus leaving 1 cm of tubing past the incisors. Solution was administered by pressing the syringe plunger.
Oral dosing (PO) compositions containing low molecular weight heparin (LMWH) and either the mono-sodium or di-sodium salt form of the delivery agent compound SNAD were prepared in water. […]
Citrated blood samples were collected by cardiac puncture 0.5, 1.0, 2.0, 3.0 and 4.0 hours after administration. Heparin absorption was verified by an increase in plasma heparin measured by the anti-Factor Xa assay CHROMOSTRATE® Heparin anti-Xa assay, available from Organon Teknika Corporation of Durham, N.C. Baseline values were determined earlier and found to be about zero IU/ml. […]

[5] = Oral delivery of heparin with SNAD salts; plasma heparin by anti-Factor Xa assay; assay type: in vivo, cynomolgus macaque monkeys; details: cynomolgus monkeys, about 150 mg/kg delivery agent and 30 mg/kg heparin
Procedure: The dose for each monkey was about 150 mg/kg of the disodium SNAD ethanol solvate and about 30 mg/kg of heparin. The dosing protocol for administering the capsules to each animal was as follows. […] Water was available throughout the dosing period and 400 ml juice was made available to the animal overnight prior to dosing and throughout the dosing period. The animal was restrained in a sling restraint. A capsule was placed into a “pill gun”, which is a plastic tool with a cocked plunger and split rubber tip to accommodate a capsule. The pill gun was inserted into the esophagus of the animal. The plunger of the pill gun was pressed to push the capsule out of the rubber tip into the esophagus. The pill gun was then retracted. The animal's mouth was held closed and approximately 5 ml reverse osmosis water was administered into the mouth from the side to induce a swallowing reflex. The throat of the animal was rubbed further to induce the swallowing reflex. […] Blood was added to fill the tube to the 1.3 ml line. The tube was then placed on wet ice pending centrifugation. […] Plasma heparin concentrations were determined using the anti-Factor Xa assay CHROMOSTRATE™ heparin anti-Xa assay, available from Organon Teknika Corporation of Durham, N.C. Results from the animals were averaged for each time point. […] Two tablets were dosed to each of approximately 4.0 kg monkeys. […]

CC(C)C[C@H](NC(=O)[C@H](CCCCN)NC(=O)CNC(=O)[C@H](CC(C)C)NC(=O)[C@@H](NC(=O)[C@@H]1CSSC[C@H](N)C(=O)N[C@@H](CO)C(=O)N[C@@H](CC(N)=O)C(=O)N[C@@H](CC(C)C)C(=O)N[C@@H](CO)C(=O)N[C@@H]([C@@H](C)O)C(=O)N1)C(C)C)C(=O)N[C@@H](CO)C(=O)N[C@@H](CCC(N)=O)C(=O)N[C@@H](CCC(=O)O)C(=O)N[C@@H](CC(C)C)C(=O)N[C@@H](Cc1c[nH]cn1)C(=O)N[C@@H](CCCCN)C(=O)N[C@@H](CC(C)C)C(=O)N[C@@H](CCC(N)=O)C(=O)N[C@H](C(=O)N[C@@H](Cc1ccc(O)cc1)C(=O)N1CCC[C@H]1C(=O)N[C@@H](CCCNC(=N)N)C(=O)N[C@H](C(=O)N[C@@H](CC(N)=O)C(=O)N[C@H](C(=O)NCC(=O)N[C@@H](CO)C(=O)NCC(=O)N[C@H](C(=O)N1CCC[C@H]1C(N)=O)[C@@H](C)O)[C@@H](C)O)[C@@H](C)O)[C@@H](C)O [(4d) subcutaneous, salmon calcitonin]
Mean Peak Serum sCT ± SD ([1]; Table 5, rats): 965 ± 848 pg/mL | Mean Peak Serum sCT ± SD ([1]; Table 6, rats): 273 ± 320 pg/mL

O=C([O-])CCCCCCCNC(=O)c1ccccc1[O-].[Na+].[Na+] [SNAC - di]
Mean Peak Factor Xa (IU · ml) ± SE [2]: 2.81 ± 0.17 IU · ml | Mean Peak APTT (sec) ± SE [3]: 300 ± 0 s

O=C([O-])CCCCCCCCCNC(=O)c1ccccc1[O-].[Na+].[Na+] [SNAD-di]
Mean Peak Plasma Heparin Concentration (IU/ml) ± SE [4]: 1.21 ± 0.15 IU/ml

O=C([O-])CCCCCCCCCNC(=O)c1ccccc1O.[Na+] [monosodium salt of SNAD, Monosodium N-(10-[2-hydroxybenzoyl]amino)decanoate]
Mean Peak Plasma Heparin Concentration (IU/ml) ± SE [4]: 0.88 ± 0.17 IU/ml | Time after administration at which maximum averaged plasma heparin was reached [5]: 2 h | Maximum averaged plasma heparin concentration ([5]; two capsules or two tablets): 0.23±0.19 IU/mL

Mono-Sodium N-(8-[(2-hydroxybenzoyl]amino)caprylate [SNAC - mono]
Mean Peak APTT (sec) ± SE [3]: 247 ± 28.5 s
